Laboratory results: ChEMBL document CHEMBL4396896, “N-Aminoacyl and N-hydroxyacyl derivatives of diosgenyl 2-amino-2-deoxy-β-d-glucopyranoside: Synthesis, antimicrobial and hemolytic activities” (Bioorg Med Chem, 2019)
Converted amounts (≈) assume the structure as drawn.

Legend:
Enterococcus faecalis = assay: Antibacterial activity against Enterococcus faecalis ATCC 29212 incubated in MHB II under aerobic condition for 18 hrs using initial inoculum of 5 x 10^5 CFU/ml by serial dilution method; type: functional; conditions: ATCC 29212, 18 h
Pseudomonas aeruginosa = assay: Antibacterial activity against Pseudomonas aeruginosa ATCC 9027 incubated in MHB II under aerobic condition for 18 hrs using initial inoculum of 5 x 10^5 CFU/ml by serial dilution method; type: functional; conditions: ATCC 9027, 18 h
[1] = tested on: Staphylococcus epidermidis; assay: Antibacterial activity against Staphylococcus epidermidis PCM 2118 incubated in MHB II under aerobic condition for 18 hrs using initial inoculum of 5 x 10^5 CFU/ml by serial dilution method; type: functional; conditions: PCM 2118, 18 h
Escherichia coli = assay: Antibacterial activity against Escherichia coli ATCC 25922 incubated in MHB II under aerobic condition for 18 hrs using initial inoculum of 5 x 10^5 CFU/ml by serial dilution method; type: functional; conditions: ATCC 25922, 18 h
Klebsiella pneumoniae = assay: Antibacterial activity against Klebsiella pneumoniae ATCC 700603 incubated in MHB II under aerobic condition for 18 hrs using initial inoculum of 5 x 10^5 CFU/ml by serial dilution method; type: functional; conditions: ATCC 700603, 18 h
Bacillus subtilis = assay: Antibacterial activity against Bacillus subtilis ATCC 6633 incubated in MHB II under aerobic condition for 18 hrs using initial inoculum of 5 x 10^5 CFU/ml by serial dilution method; type: functional; conditions: ATCC 6633, 18 h
[2] = Haemolytic activity in human erythrocytes assessed as haemolytic index by measuring hemoglobin release at 0.5 to 128 mg/L incubated for 1 hr by microplate spectrophotometry relative to control; type: ADME, cell-based, Erythrocyte; conditions: human erythrocytes, read-out: HI
Staphylococcus aureus = assay: Antibacterial activity against Staphylococcus aureus ATCC 25923 incubated in MHB II under aerobic condition for 18 hrs using initial inoculum of 5 x 10^5 CFU/ml by serial dilution method; type: functional; conditions: ATCC 25923, 18 h
Proteus mirabilis = assay: Antibacterial activity against Proteus mirabilis PCM 543 incubated in MHB II under aerobic condition for 18 hrs using initial inoculum of 5 x 10^5 CFU/ml by serial dilution method; type: functional; conditions: PCM 543, 18 h
Yarrowia lipolytica = assay: Antifungal activity against Candida lipolytica PCM 2680 incubated in sabouraud liquid medium under aerobic condition for 48 hrs using initial inoculum of 10^3 CFU/ml by serial dilution method; type: functional; conditions: PCM 2680, 48 h
Candida albicans = assay: Antifungal activity against Candida albicans ATCC 10231 incubated in sabouraud liquid medium under aerobic condition for 48 hrs using initial inoculum of 10^3 CFU/ml by serial dilution method; type: functional; conditions: ATCC 10231, 48 h
[3] = Haemolytic activity in human erythrocytes assessed as haemolytic index by measuring hemoglobin release at 128 mg/L incubated for 1 hr by microplate spectrophotometry; type: ADME, cell-based, Erythrocyte; conditions: read-out: HI
[4] = Haemolytic activity in human erythrocytes assessed as haemolytic index by measuring hemoglobin release at 64 mg/L incubated for 1 hr by microplate spectrophotometry; type: ADME, cell-based, Erythrocyte; conditions: read-out: HI

SMILES | MIC (Enterococcus faecalis) | MIC (Pseudomonas aeruginosa) | MIC [1] | MIC (Escherichia coli) | MIC (Klebsiella pneumoniae) | MIC (Bacillus subtilis) | MIC (Staphylococcus aureus) | MIC (Proteus mirabilis) | MIC (Yarrowia lipolytica) | MIC (Candida albicans) | hemolysis at 1 h [2] | hemolysis at 1 h, 128 mg/L [3] | hemolysis at 1 h, 64 mg/L [4]
C[C@@H]1CC[C@@]2(OC1)O[C@H]1C[C@H]3[C@@H]4CC=C5C[C@@H](O[C@@H]6O[C@H](CO)[C@@H](O)[C@H](O)[C@H]6NC(=O)[C@H](C)N)CC[C@]5(C)[C@H]4CC[C@]3(C)[C@H]1[C@@H]2C | 4 µg/mL (≈ 6.18 µM) | > 128 µg/mL | 4 µg/mL (≈ 6.18 µM) | > 128 µg/mL | > 128 µg/mL | 8 µg/mL (≈ 12.4 µM) | 4 µg/mL (≈ 6.18 µM) | > 128 µg/mL | 2 µg/mL (≈ 3.09 µM) | 4 µg/mL (≈ 6.18 µM) | < 10% |  | 
C[C@@H]1CC[C@@]2(OC1)O[C@H]1C[C@H]3[C@@H]4CC=C5C[C@@H](O[C@@H]6O[C@H](CO)[C@@H](O)[C@H](O)[C@H]6NC(=O)[C@@H](N)[C@@H](C)O)CC[C@]5(C)[C@H]4CC[C@]3(C)[C@H]1[C@@H]2C | 16 µg/mL (≈ 23.6 µM) | > 128 µg/mL | 16 µg/mL (≈ 23.6 µM) | > 128 µg/mL | > 128 µg/mL | 32 µg/mL (≈ 47.3 µM) | 16 µg/mL (≈ 23.6 µM) | > 128 µg/mL | 4 µg/mL (≈ 5.91 µM) | 4 µg/mL (≈ 5.91 µM) |  | 56% | 
CSCC[C@H](N)C(=O)N[C@H]1[C@H](O[C@H]2CC[C@@]3(C)C(=CC[C@H]4[C@@H]5C[C@@H]6O[C@]7(CC[C@@H](C)CO7)[C@@H](C)[C@@H]6[C@@]5(C)CC[C@@H]43)C2)O[C@H](CO)[C@@H](O)[C@@H]1O | 4 µg/mL (≈ 5.66 µM) | > 128 µg/mL | 4 µg/mL (≈ 5.66 µM) | > 128 µg/mL | > 128 µg/mL | > 128 µg/mL | > 128 µg/mL | > 128 µg/mL |  |  | < 4% |  | 
C[C@@H]1CC[C@@]2(OC1)O[C@H]1C[C@H]3[C@@H]4CC=C5C[C@@H](O[C@@H]6O[C@H](CO)[C@@H](O)[C@H](O)[C@H]6NC(=O)[C@@H](N)CCCCN)CC[C@]5(C)[C@H]4CC[C@]3(C)[C@H]1[C@@H]2C | 16 µg/mL (≈ 22.7 µM) | > 128 µg/mL | 16 µg/mL (≈ 22.7 µM) | > 128 µg/mL | > 128 µg/mL | 32 µg/mL (≈ 45.5 µM) | 16 µg/mL (≈ 22.7 µM) | > 128 µg/mL | 4 µg/mL (≈ 5.68 µM) | 4 µg/mL (≈ 5.68 µM) |  | 92% | 
C[C@@H]1CC[C@@]2(OC1)O[C@H]1C[C@H]3[C@@H]4CC=C5C[C@@H](O[C@@H]6O[C@H](CO)[C@@H](O)[C@H](O)[C@H]6NC(=O)[C@@H](C)N)CC[C@]5(C)[C@H]4CC[C@]3(C)[C@H]1[C@@H]2C | 2 µg/mL (≈ 3.09 µM) | > 128 µg/mL | 2 µg/mL (≈ 3.09 µM) | > 128 µg/mL | > 128 µg/mL | 2 µg/mL (≈ 3.09 µM) | 2 µg/mL (≈ 3.09 µM) | > 128 µg/mL | 8 µg/mL (≈ 12.4 µM) | 4 µg/mL (≈ 6.18 µM) | < 10% |  | 
C[C@@H]1CC[C@@]2(OC1)O[C@H]1C[C@H]3[C@@H]4CC=C5C[C@@H](O[C@@H]6O[C@H](CO)[C@@H](O)[C@H](O)[C@H]6NC(=O)C(F)(F)F)CC[C@]5(C)[C@H]4CC[C@]3(C)[C@H]1[C@@H]2C | > 128 µg/mL | > 128 µg/mL | > 128 µg/mL | > 128 µg/mL | > 128 µg/mL | > 128 µg/mL | > 128 µg/mL | > 128 µg/mL |  | > 128 µg/mL |  |  | 

Continued, in another order:

MIC (Enterococcus faecalis) | MIC (Pseudomonas aeruginosa) | MIC [1] | MIC (Escherichia coli) | MIC (Klebsiella pneumoniae) | MIC (Bacillus subtilis) | MIC (Staphylococcus aureus) | MIC (Proteus mirabilis) | MIC (Yarrowia lipolytica) | MIC (Candida albicans) | SMILES | hemolysis at 1 h [2] | hemolysis at 1 h, 128 mg/L [3] | hemolysis at 1 h, 64 mg/L [4]
> 128 µg/mL | > 128 µg/mL | > 128 µg/mL | > 128 µg/mL | > 128 µg/mL | > 128 µg/mL | > 128 µg/mL | > 128 µg/mL | > 128 µg/mL | > 128 µg/mL | C[C@@H]1CC[C@@]2(OC1)O[C@H]1C[C@H]3[C@@H]4CC=C5C[C@@H](O[C@@H]6O[C@H](CO)[C@@H](O)[C@H](O)[C@H]6NC(=O)CO)CC[C@]5(C)[C@H]4CC[C@]3(C)[C@H]1[C@@H]2C | < 10% |  | 
16 µg/mL (≈ 24.1 µM) | > 128 µg/mL | 4 µg/mL (≈ 6.03 µM) | > 128 µg/mL | > 128 µg/mL | 8 µg/mL (≈ 12.1 µM) | 8 µg/mL (≈ 12.1 µM) | > 128 µg/mL | 4 µg/mL (≈ 6.03 µM) | 4 µg/mL (≈ 6.03 µM) | C[C@@H]1CC[C@@]2(OC1)O[C@H]1C[C@H]3[C@@H]4CC=C5C[C@@H](O[C@@H]6O[C@H](CO)[C@@H](O)[C@H](O)[C@H]6NC(=O)[C@@H](N)CO)CC[C@]5(C)[C@H]4CC[C@]3(C)[C@H]1[C@@H]2C |  | 46% | 
> 128 µg/mL | > 128 µg/mL | > 128 µg/mL | > 128 µg/mL | > 128 µg/mL | > 128 µg/mL | > 128 µg/mL | > 128 µg/mL | 2 µg/mL (≈ 3.01 µM) | 16 µg/mL (≈ 24.1 µM) | C[C@@H]1CC[C@@]2(OC1)O[C@H]1C[C@H]3[C@@H]4CC=C5C[C@@H](O[C@@H]6O[C@H](CO)[C@@H](O)[C@H](O)[C@H]6NC(=O)[C@@H](O)CO)CC[C@]5(C)[C@H]4CC[C@]3(C)[C@H]1[C@@H]2C |  | 56% | 27%
> 128 µg/mL | > 128 µg/mL | > 128 µg/mL | > 128 µg/mL | > 128 µg/mL | > 128 µg/mL | > 128 µg/mL | > 128 µg/mL |  | > 128 µg/mL | CC(=O)N[C@H]1[C@H](O[C@H]2CC[C@@]3(C)C(=CC[C@H]4[C@@H]5C[C@@H]6O[C@]7(CC[C@@H](C)CO7)[C@@H](C)[C@@H]6[C@@]5(C)CC[C@@H]43)C2)O[C@H](CO)[C@@H](O)[C@@H]1O |  |  | 
4 µg/mL (≈ 6.18 µM) | > 128 µg/mL | 4 µg/mL (≈ 6.18 µM) | > 128 µg/mL | > 128 µg/mL | 4 µg/mL (≈ 6.18 µM) | 4 µg/mL (≈ 6.18 µM) | > 128 µg/mL | 4 µg/mL (≈ 6.18 µM) | 4 µg/mL (≈ 6.18 µM) | CNCC(=O)N[C@H]1[C@H](O[C@H]2CC[C@@]3(C)C(=CC[C@H]4[C@@H]5C[C@@H]6O[C@]7(CC[C@@H](C)CO7)[C@@H](C)[C@@H]6[C@@]5(C)CC[C@@H]43)C2)O[C@H](CO)[C@@H](O)[C@@H]1O | < 10% |  | 
> 128 µg/mL | > 128 µg/mL | > 128 µg/mL | > 128 µg/mL | > 128 µg/mL | > 128 µg/mL | > 128 µg/mL | > 128 µg/mL | > 128 µg/mL | > 128 µg/mL | CC(=O)NCC(=O)N[C@H]1[C@H](O[C@H]2CC[C@@]3(C)C(=CC[C@H]4[C@@H]5C[C@@H]6O[C@]7(CC[C@@H](C)CO7)[C@@H](C)[C@@H]6[C@@]5(C)CC[C@@H]43)C2)O[C@H](CO)[C@@H](O)[C@@H]1O | < 10% |  | 
> 128 µg/mL | > 128 µg/mL | > 128 µg/mL | > 128 µg/mL | > 128 µg/mL | > 128 µg/mL | > 128 µg/mL | > 128 µg/mL | > 128 µg/mL | > 128 µg/mL | C[C@@H]1CC[C@@]2(OC1)O[C@H]1C[C@H]3[C@@H]4CC=C5C[C@@H](O[C@@H]6O[C@H](CO)[C@@H](O)[C@H](O)[C@H]6NC(=O)[C@H](C)O)CC[C@]5(C)[C@H]4CC[C@]3(C)[C@H]1[C@@H]2C | < 10% |  | 
